Test system: K24384-001-R-PDC complex spheroids, viability
Test: Anticancer human tumor K24384-001-R-PDC patient-derived pancreatic adenocarcinoma cell line growth inhibition [GQUAD]
Conditions: for IC50: curve of first compound; for viability, T/C: stronger effect = lower value; active = viability on the fitted dose curve at most 10% of control; inactive = the rest
Outline: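 Tumor cells were grown as complex spheroids with HUVEC endothelial cells and mesenchymal stem cells as stroma. G-quadruplex stabilizers were combined with targeted agents over half-log dilutions from near the clinical Cmax, or from 10 microM.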

[1] = second compound 0.0316 µM, first compound 0.0316 µM
[2] = second compound 0.0316 µM, first compound 0.1 µM
[3] = second compound 0.0316 µM, first compound 0.316 µM
[4] = second compound 0.0316 µM, first compound 1 µM
[5] = second compound 0.0316 µM, first compound 3.16 µM
[6] = second compound 0.0316 µM, first compound 10 µM
[7] = second compound 0.1 µM, first compound 0.0316 µM
[8] = second compound 0.1 µM, first compound 0.1 µM
[9] = second compound 0.1 µM, first compound 0.316 µM
[10] = second compound 0.1 µM, first compound 1 µM
[11] = second compound 0.1 µM, first compound 3.16 µM
[12] = second compound 0.1 µM, first compound 10 µM
[13] = second compound 0.316 µM, first compound 0.0316 µM
[14] = second compound 0.316 µM, first compound 0.1 µM
[15] = second compound 0.316 µM, first compound 0.316 µM
[16] = second compound 0.316 µM, first compound 1 µM
[17] = second compound 0.316 µM, first compound 3.16 µM
[18] = second compound 0.316 µM, first compound 10 µM
[19] = second compound 1 µM, first compound 0.0316 µM
[20] = second compound 1 µM, first compound 0.1 µM
[21] = second compound 1 µM, first compound 0.316 µM
[22] = second compound 1 µM, first compound 1 µM
[23] = second compound 1 µM, first compound 3.16 µM
[24] = second compound 1 µM, first compound 10 µM
[25] = second compound 3.16 µM, first compound 0.0316 µM
[26] = second compound 3.16 µM, first compound 0.1 µM
[27] = second compound 3.16 µM, first compound 0.316 µM
[28] = second compound 3.16 µM, first compound 1 µM
[29] = second compound 3.16 µM, first compound 3.16 µM
[30] = second compound 3.16 µM, first compound 10 µM
[31] = second compound 10 µM, first compound 0.0316 µM
[32] = second compound 10 µM, first compound 0.1 µM
[33] = second compound 10 µM, first compound 0.316 µM
[34] = second compound 10 µM, first compound 1 µM
[35] = second compound 10 µM, first compound 3.16 µM
[36] = second compound 10 µM, first compound 10 µM
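Note: spheroids exposed to compounds for seven days.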

O=C(NO)c1cnc(N2CCN(S(=O)(=O)c3ccc4ccccc4c3)CC2)nc1 + Cc1cnc(CNC(=O)c2c(=O)c3ccc(N4CCCN(C)CC4)nc3n3c2sc2ccccc23)cn1
< 31.6 nM: IC50 (second compound 1 µM) | IC50 (second compound 3.16 µM) | IC50 (second compound 10 µM)
active: viability, T/C [4] 0.9% | viability, T/C [5] 0.08% | viability, T/C [6] 0.11% | viability, T/C [10] 1.11% | viability, T/C [11] 0.09% | viability, T/C [12] 0.11% | viability, T/C [16] 0.16% | viability, T/C [17] 0.07% | viability, T/C [18] 0.09% | viability, T/C [22] 0.12% | viability, T/C [23] 0.07% | viability, T/C [24] 0.11% | viability, T/C [28] 0.12% | viability, T/C [29] 0.1% | viability, T/C [30] 0.14% | viability, T/C [31] 0.16% | viability, T/C [32] 0.23% | viability, T/C [33] 0.19% | viability, T/C [34] 0.16% | viability, T/C [35] 0.17% | viability, T/C [36] 0.16%
325 nM: IC50 (second compound 0.1 µM)
inactive: viability, T/C [1] 86.3% | viability, T/C [2] 78% | viability, T/C [3] 77.2% | viability, T/C [7] 65.2% | viability, T/C [8] 78.7% | viability, T/C [9] 51.2% | viability, T/C [13] 42.7% | viability, T/C [14] 73% | viability, T/C [15] 35.8% | viability, T/C [19] 38.9% | viability, T/C [20] 43.9% | viability, T/C [21] 31.3% | viability, T/C [25] 33.3% | viability, T/C [26] 34.1% | viability, T/C [27] 16.3%
477 nM: IC50 (second compound 0.0316 µM)
151 nM: IC50 (second compound 0.316 µM)

Cc1cccc(N(C)C(=O)C2C(O)CCN2c2nc(C)cc(C(F)(F)F)c2C#N)c1 (stereo unspecified) + Cc1[nH]c2ccc(F)cc2c1-c1nc2c3cccnc3c3ncccc3c2[nH]1
> 10000 nM: IC50 (second compound 0.0316 µM) | IC50 (second compound 0.1 µM) | IC50 (second compound 0.316 µM) | IC50 (second compound 1 µM) | IC50 (second compound 3.16 µM) | IC50 (second compound 10 µM)
inactive: viability, T/C [1] 98.2% | viability, T/C [2] 90.9% | viability, T/C [3] 105% | viability, T/C [4] 95.2% | viability, T/C [5] 116% | viability, T/C [6] 117% | viability, T/C [7] 95.3% | viability, T/C [8] 102% | viability, T/C [9] 103% | viability, T/C [10] 100% | viability, T/C [11] 131% | viability, T/C [12] 118% | viability, T/C [13] 81.5% | viability, T/C [14] 103% | viability, T/C [15] 107% | viability, T/C [16] 104% | viability, T/C [17] 105% | viability, T/C [18] 128% | viability, T/C [19] 85.4% | viability, T/C [20] 91.2% | viability, T/C [21] 87.9% | viability, T/C [22] 99% | viability, T/C [23] 114% | viability, T/C [24] 93.4% | viability, T/C [25] 83.1% | viability, T/C [26] 75% | viability, T/C [27] 77.4% | viability, T/C [28] 85% | viability, T/C [29] 83.7% | viability, T/C [30] 71.8% | viability, T/C [31] 74.4% | viability, T/C [32] 85.5% | viability, T/C [33] 74.4% | viability, T/C [34] 85.6% | viability, T/C [35] 67.9% | viability, T/C [36] 75.5%

CC(=O)O[C@H]1C(=O)[C@@]2(C)[C@H]([C@H](OC(=O)c3ccccc3)[C@]3(O)C[C@H](OC(=O)[C@H](O)[C@@H](NC(=O)c4ccccc4)c4ccccc4)C(C)=C1C3(C)C)[C@]1(OC(C)=O)CO[C@@H]1C[C@@H]2O + Cc1cnc(CNC(=O)c2c(=O)c3ccc(N4CCCN(C)CC4)nc3n3c2sc2ccccc23)cn1
inactive: viability, T/C [1] 53.4% | viability, T/C [2] 27.2% | viability, T/C [3] 38.1% | viability, T/C [4] 23.7% | viability, T/C [5] 29.2% | viability, T/C [6] 31.1% | viability, T/C [7] 47.4% | viability, T/C [8] 35.2% | viability, T/C [9] 30.4% | viability, T/C [10] 31.8% | viability, T/C [11] 29.5% | viability, T/C [12] 36.8% | viability, T/C [13] 47% | viability, T/C [14] 39.9% | viability, T/C [15] 36.5% | viability, T/C [16] 29.9% | viability, T/C [17] 39.1% | viability, T/C [18] 34.3% | viability, T/C [19] 32.4% | viability, T/C [20] 36.2% | viability, T/C [21] 26.6% | viability, T/C [22] 37.4% | viability, T/C [23] 41.9% | viability, T/C [24] 34.4% | viability, T/C [25] 31.9% | viability, T/C [26] 33.5% | viability, T/C [27] 32.6% | viability, T/C [28] 28.9% | viability, T/C [29] 32.5% | viability, T/C [30] 36.5%
37.4 nM: IC50 (second compound 0.0316 µM)
< 31.6 nM: IC50 (second compound 0.1 µM) | IC50 (second compound 0.316 µM) | IC50 (second compound 1 µM) | IC50 (second compound 3.16 µM) | IC50 (second compound 10 µM)
active: viability, T/C [31] 0.14% | viability, T/C [32] 0.18% | viability, T/C [33] 0.21% | viability, T/C [34] 0.18% | viability, T/C [35] 0.19% | viability, T/C [36] 0.2%
